According to patent publication US7799353B2, “Pharmaceutical mixture for hepatitis treatment and its preparation method” (Industrial Technology Research Institute, priority 2003, dated 2010):

Columns and labels:
[1] = test system: d-galactosamine-induced acute hepatitis; experiment: d-galactosamine-induced acute hepatitis in rats, serum GOT/GPT (Embodiment 6, silymarin and guanine positive controls); assay type: in vivo
Method: (§1) Rats are randomly divided, with six rats in each group. The animals fasted for 24 hr before the experiment. In the study, normal and d-galactosamine (Gal) groups are orally given with distilled water, testing groups are orally given with 1 g/kg of the test articles (JM, BMEC-1 or BMEC-101 from different processes) dissolving in distilled water, and rats in positive control group are orally administrated with silymarin (200 mg/kg) and guanine (300 mg/kg). One hour later, each group is i.p. with d-galactosamine (400 mg/kg), and the normal group is i.p. with saline. Four and eight hours after d-galactosamine injection, the same dosages are administrated again. Twenty-four hours after d-galactosamine injection, the animals are anesthetized with ether, and the blood is collected from the carotid artery. The serum is separated and stands still at room temperature for 1 hr, and centrifuged (Backman centrifuge, GS-6R, 3000 rpm) for 10 mins. The activities of rat serum GOT and GPT are measured.

[2] = test system: d-galactosamine-induced acute hepatitis; experiment: d-galactosamine-induced acute hepatitis in rats, serum GOT/GPT (Embodiment 5, guanine positive control); assay type: in vivo; conditions: for reduction of sGOT value / reduction of sGPT value: vs d-galactosamine group
Method: Male rats are randomly divided, with five rats in the individual group and 200±20 g of each. In the study, normal and d-galactosamine (Gal) groups are orally given with distilled water, testing groups are orally given with test articles (JM or BMEC-1 from different processes) dissolving in distilled water, positive control group is orally given with guanine (300 mg/kg), and each administration dosage is 10 ml/kg.
Half-hour later, each group is i.p. with d-galactosamine (500 mg/kg) except the normal group. Four and eight hours after d-galactosamine injection, the same dosages are administrated again. Twenty-four hours after d-galactosamine injection, the animals are sacrificed for collecting the blood, and then the serum GOT (Glutamyl Oxaloacetic Transaminase) and GPT (Glutamyl Pyrubic Transaminase) activities are measured by using HITACHI auto-analyzing system (model 7050) with UV method.

[3] = test system: d-galactosamine-induced liver damage; experiment: Histopathological sections of liver of d-galactosamine-induced acute hepatitis animals; assay type: in vivo, rats; conditions: 300 mg/kg
Method: as §1
After blood is collected, the liver of the acute hepatitis animal induced by d-galactosamine is separated, and liver tissue around 0.5 cm^3 in each folium is taken out. Those tissues are fixed in 10% neutral formalin for 1 to 2 weeks, then dehydrated and paraffin embedded by the dehydration and wax-exudation device, and cut into 4 to 5 μm liver slices by rotary microtome. The slices are stained with Haematoxylin and Eosin, and the pathological patterns are observed under an optical microscope.

[4] = Table 5, oral 300 × 3 mg/kg, Gal 400 mg/kg i.p., mean ± SEM, n = 6
[5] = Table 5 experiment, oral 300×3 mg/kg, vs d-galactosamine group
[6] = Table 2, oral 300 × 3 mg/kg, Gal 500 mg/kg i.p., serum 24 h after Gal, mean ± SEM, n = 5
[7] = Table 2 experiment, positive control, oral 300 × 3 mg/kg
[8] = Table 3, oral 300 × 3 mg/kg, Gal 500 mg/kg i.p., mean ± SEM, n = 5
[9] = Table 3 experiment, oral 300×3 mg/kg
[10] = Table 4 Batch 1, oral 300 × 3 mg/kg, Gal 500 mg/kg i.p., mean ± SEM, n = 5
[11] = Table 4 Batch 1, oral 300×3 mg/kg
[12] = Table 4 Batch 2, oral 300 × 3 mg/kg, Gal 500 mg/kg i.p., mean ± SEM, n = 5
[13] = Table 4 Batch 2, oral 300×3 mg/kg

With Nc1nc2nc[nH]c2c(=O)[nH]1 [guanine] the sGOT [1, 4] was 160.7 ± 33.5 U/L, the sGPT [1, 4] was 55.1 ± 19.2 U/L and the “reduction of sGOT value” [1, 5] was 70%. The “reduction of sGPT value” [1, 5] was 79%, the sGOT [2, 6] was 980.0 ± 92.5 U/L and the sGPT [2, 6] was 589.6 ± 54.6 U/L. The “reduction of sGOT value” [2, 7] was 24%, the “reduction of sGPT value” [2, 7] was 32% and the sGOT [2, 8] was 954.8 ± 122.1 U/L. For the same compound, the sGPT [2, 8] was 514.4 ± 78.2 U/L, the “reduction of sGOT value” [2, 9] was 45% and the “reduction of sGPT value” [2, 9] was 59%. The sGOT [2, 10] was 1055.6 ± 150.1 U/L, the sGPT [2, 10] was 699.2 ± 103.6 U/L and the “reduction of sGOT value” [2, 11] was 49%. The “reduction of sGPT value” [2, 11] was 41%, the GOT [2, 12] was 1080.0 ± 181.7 U/L and the GPT [2, 12] was 584.0 ± 114.9 U/L. For the same compound, the “reduction of sGOT value” [2, 13] was 42%, the “reduction of sGPT value” [2, 13] was 49% and the Fibrosis ([3]; liver fibrosis grade) was 1. For the same compound, the Balloon degeneration ([3]; liver histopathology grade) was 0, the Bile duct proliferation ([3]; liver histopathology grade) was 1 and the Fatty change ([3]; liver histopathology grade) was 1. It also gave an Inflammation ([3]; liver histopathology grade) of 1, a Mitosis ([3]; liver histopathology grade) of 0 and a Necrosis ([3]; liver histopathology grade) of 0.
